Test results: patent US20250282827A1, “LIPIDATED POLYMYXIN ANALOGUES” (priority 2021, published 2025)
Converted amounts (≈) assume the structure as drawn. Like-named read-outs stand apart in the source and are kept apart here. Positions of bridges follow the written chain, without caps; N, C: chain ends. Non-standard residues stand in square brackets, D forms with d. Residues, ends and D or L forms follow the SMILES beside them. *: point of attachment. CH2CH2OBz(4-tBu) = CC(C)(C)c1ccc(C(=O)OCC*)cc1; Ethyl(2-propionyloxy) = CCC(=O)OCC*; Ethyl(2-OPiv) = CC(C)(C)C(=O)OCC*; Ethyl(2-OBz) = O=C(OCC*)c1ccccc1; Lauroyl = CCCCCCCCCCCC(=O)*; Octanoyl = CCCCCCCC(=O)*; Dab = NCC[C@H](N)C(=O)O; Butyryl = CCCC(=O)*

Key:
[1] = tested on: E. coli ATCC 25922; type: cell-based, Escherichia coli
Description: (§1) All 81 compounds prepared in Examples 2 and 3 underwent screening against a panel of Gram-negative bacterium to assess their ability to inhibit bacterial growth. […] The median value is presented.

[2] = tested on: A. baumannii ATCC 19606; type: cell-based, Acinetobacter baumannii
Description: as §1

[3] = tested on: P. aeruginosa ATCC 27853; type: cell-based, Pseudomonas aeruginosa
Description: as §1

[4] = tested on: K. pneumoniae ATCC 33495; type: cell-based, Klebsiella pneumoniae
Description: as §1

[5] = tested on: K. pneumoniae ATCC 700603; type: cell-based, Klebsiella pneumoniae
Description: as §1

[6] = tested on: K. pneumoniae ATCC MS6671; type: cell-based, Klebsiella pneumoniae
Description: as §1

[7] = tested on: E. coli ATCC MS8345; type: cell-based, Escherichia coli
Description: as §1
Expansion of the polymyxin macrocycle by substituting […]) offered little advantage in antimicrobial activity but was generally well tolerated although for A. baumanni and P. aeruginosa this was detrimental.

[8] = colistin-resistant strain, median of triplicate

MIC E. coli ATCC 25922 ([1]; ATCC 25922) | MIC A. baumannii ATCC 19606 ([2]; ATCC 19606) | MIC P. aeruginosa ATCC 27853 ([3]; ATCC 27853) | MIC K. pneumoniae ATCC 33495 ([4]; ATCC 33495) | MIC K. pneumoniae ATCC 700603 ([5]; ATCC 700603) | MIC K. pneumoniae ATCC MS6671 ([6]; ATCC MS6671) | MIC E. coli ATCC MS8345 ([7]; ATCC MS8345) | Structure (SMILES) | MIC E. coli ATCC 25922 ([1]; median of triplicate) | MIC A. baumannii ATCC 19606 ([2]; median of triplicate) | MIC P. aeruginosa ATCC 27853 ([3]; median of triplicate) | MIC K. pneumoniae ATCC 33495 ([4]; median of triplicate) | MIC K. pneumoniae ATCC 700603 ([5]; median of triplicate) | MIC K. pneumoniae ATCC MS6671 ([6]; median of triplicate) | MIC E. coli ATCC MS8345 [7, 8]
 |  |  |  |  |  |  | C[C@@H](O)[C@@H]1NC(=O)[C@H](CCN)NC(=O)[C@H](CCN)NC(=O)[C@H](CSCCOC(=O)c2ccccc2)NC(=O)[C@@H](Cc2ccccc2)NC(=O)[C@H](CCN)NC(=O)[C@@H](NC(=O)[C@H](CCN)NC(=O)[C@@H](NC(=O)[C@H](CCN)NC(=O)[C@@H](N)CSCCOC(=O)c2ccc(C(C)(C)C)cc2)[C@@H](C)O)CCNC1=O [Compound 41] (H-C(CH2CH2OBz(4-tBu))[Dab]T[Dab][Dab][Dab][dF]C(Ethyl(2-OBz))[Dab][Dab]T; lactam 5-C) | 1 µg/mL (≈ 0.663 µM) | 2 µg/mL (≈ 1.33 µM) | 2 µg/mL (≈ 1.33 µM) | 2 to 4 µg/mL | 1 to 2 µg/mL | >32 µg/mL | 4 µg/mL (≈ 2.65 µM)
2 µg/mL (≈ 1.44 µM) | >32 µg/mL | >32 µg/mL | 16 µg/mL (≈ 11.6 µM) | 2 to 4 µg/mL | >32 µg/mL | >32 µg/mL | CCC(=O)OCCSC[C@H](N)C(=O)N[C@@H](CCN)C(=O)N[C@H](C(=O)N[C@@H](CCN)C(=O)N[C@H]1CCNC(=O)[C@H]([C@@H](C)O)NC(=O)[C@H](CCN)NC(=O)[C@H](CCN)NC(=O)[C@H](CSCCOC(=O)C(C)(C)C)NC(=O)[C@@H](Cc2ccccc2)NC(=O)[C@H](CCN)NC1=O)[C@@H](C)O [Compound 43] (H-C(Ethyl(2-propionyloxy))[Dab]T[Dab][Dab][Dab][dF]C(Ethyl(2-OPiv))[Dab][Dab]T; lactam 5-C) |  |  |  |  |  |  | 
0.25 µg/mL (≈ 0.181 µM) | 2 to 4 µg/mL | 16 µg/mL (≈ 11.6 µM) | 0.25 to 0.5 µg/mL | 0.25 to 0.5 µg/mL | >32 µg/mL | 16 to 32 µg/mL | CCC(=O)OCCSC[C@@H]1NC(=O)[C@@H](Cc2ccccc2)NC(=O)[C@H](CCN)NC(=O)[C@@H](NC(=O)[C@H](CCN)NC(=O)[C@@H](NC(=O)[C@H](CCN)NC(=O)[C@@H](N)CSCCOC(=O)C(C)(C)C)[C@@H](C)O)CCNC(=O)[C@H]([C@@H](C)O)NC(=O)[C@H](CCN)NC(=O)[C@H](CCN)NC1=O [Compound 45] (H-C(Ethyl(2-OPiv))[Dab]T[Dab][Dab][Dab][dF]C(Ethyl(2-propionyloxy))[Dab][Dab]T; lactam 5-C) |  |  |  |  |  |  | 
 |  |  |  |  |  |  | CCCC(=O)N[C@@H](CSCCOC(=O)c1ccccc1)C(=O)N[C@@H](CCN)C(=O)N[C@H](C(=O)N[C@@H](CCN)C(=O)N[C@H]1CCNC(=O)[C@H]([C@@H](C)O)NC(=O)[C@H](CCN)NC(=O)[C@H](CCN)NC(=O)[C@H](CSCCOC(=O)c2ccccc2)NC(=O)[C@@H](Cc2ccccc2)NC(=O)[C@H](CCN)NC1=O)[C@@H](C)O [Compound 50] (Butyryl-C(Ethyl(2-OBz))[Dab]T[Dab][Dab][Dab][dF]C(Ethyl(2-OBz))[Dab][Dab]T; lactam 5-C) | 0.5 µg/mL (≈ 0.328 µM) | 1 to 2 µg/mL | 1 µg/mL (≈ 0.657 µM) | 0.5 to 1 µg/mL | 1 µg/mL (≈ 0.657 µM) | >32 µg/mL | 16 µg/mL (≈ 10.5 µM)
 |  |  |  |  |  |  | CCCCCCCC(=O)N[C@@H](CSCCOC(=O)c1ccccc1)C(=O)N[C@@H](CCN)C(=O)N[C@H](C(=O)N[C@@H](CCN)C(=O)N[C@H]1CCNC(=O)[C@H]([C@@H](C)O)NC(=O)[C@H](CCN)NC(=O)[C@H](CCN)NC(=O)[C@H](CSCCOC(=O)c2ccccc2)NC(=O)[C@@H](Cc2ccccc2)NC(=O)[C@H](CCN)NC1=O)[C@@H](C)O [Compound 51] (Octanoyl-C(Ethyl(2-OBz))[Dab]T[Dab][Dab][Dab][dF]C(Ethyl(2-OBz))[Dab][Dab]T; lactam 5-C) | 2 µg/mL (≈ 1.27 µM) | 1 to 2 µg/mL | 2 µg/mL (≈ 1.27 µM) | 2 µg/mL (≈ 1.27 µM) | 2 to 4 µg/mL | >32 µg/mL | 2 to 4 µg/mL
 |  |  |  |  |  |  | CCCCCCCCCCCC(=O)N[C@@H](CSCCOC(=O)c1ccccc1)C(=O)N[C@@H](CCN)C(=O)N[C@H](C(=O)N[C@@H](CCN)C(=O)N[C@H]1CCNC(=O)[C@H]([C@@H](C)O)NC(=O)[C@H](CCN)NC(=O)[C@H](CCN)NC(=O)[C@H](CSCCOC(=O)c2ccccc2)NC(=O)[C@@H](Cc2ccccc2)NC(=O)[C@H](CCN)NC1=O)[C@@H](C)O [Compound 52] (Lauroyl-C(Ethyl(2-OBz))[Dab]T[Dab][Dab][Dab][dF]C(Ethyl(2-OBz))[Dab][Dab]T; lactam 5-C) | 2 to 4 µg/mL | 2 to 4 µg/mL | 4 µg/mL (≈ 2.45 µM) | 2 to 4 µg/mL | 4 µg/mL (≈ 2.45 µM) | >32 µg/mL | 2 to 4 µg/mL
